Drawing on ChEMBL document CHEMBL4619713, “Novel PDE5 inhibitors derived from rutaecarpine for the treatment of Alzheimer's disease” (Bioorg Med Chem Lett, 2020), this text covers IC50, Ratio IC50 and Activity for 27 molecules.

Active and inactive are the calls of the source. The calls are words filed in the database; no cut-off is given here.

In test [1] the target is cGMP-specific 3',5'-cyclic phosphodiesterase (Homo sapiens, UniProt O76074). The test can be described thus: Inhibition of PDE5A (unknown origin).
Test [2] has as its target cGMP-dependent 3',5'-cyclic phosphodiesterase (Homo sapiens, UniProt O00408). The test can be described thus: Inhibition of PDE2 (unknown origin).
In the next test the target is Phosphodiesterase 4 (Homo sapiens, UniProt P27815+Q08499+Q07343+Q08493). Description: Inhibition of PDE4 (unknown origin). It is filed as protein assay.
The target of the next test is Phosphodiesterase 6. Description: Inhibition of PDE6 (unknown origin). Type of test: protein assay, Homo sapiens.
In test [3] the target is High affinity cGMP-specific 3',5'-cyclic phosphodiesterase 9A (Homo sapiens, UniProt O76083). Description: Inhibition of PDE9 (unknown origin).
The target in test [4] is cAMP and cAMP-inhibited cGMP 3',5'-cyclic phosphodiesterase 10A (Homo sapiens, UniProt Q9Y233). Description: Inhibition of PDE10 (unknown origin).
The species named for test [5] is Homo sapiens. Description: Selectivity index, ratio of IC50 for PDE2 (unknown origin) to IC50 for PDE5A (unknown origin).
The species entered for test [6] is Homo sapiens. Description: Selectivity index, ratio of IC50 for PDE4 (unknown origin) to IC50 for PDE5A (unknown origin).
The species named for test [7] is Homo sapiens. Description: Selectivity index, ratio of IC50 for PDE9 (unknown origin) to IC50 for PDE5A (unknown origin).
Test [8] is filed under the species Homo sapiens. Description: Selectivity index, ratio of IC50 for PDE6 (unknown origin) to IC50 for PDE5A (unknown origin).
For test [9], the system named is Mus musculus. Description: Cognitive enhancing effect in mouse mouse model of scopolamine-induced cognition deficit assessed as reduction in escape latency at 5 and 10 mg/kg by water maze test. It is filed as functional, organism-based.
The subject of test [10] is Mus musculus. The test can be described thus: Cognitive enhancing effect in mouse mouse model of scopolamine-induced cognition deficit assessed as decrease in frequent error at 5 and 10 mg/kg by water maze test. It is filed as functional, organism-based.

Chain of cGMP-dependent 3',5'-cyclic phosphodiesterase (O00408 whole entry): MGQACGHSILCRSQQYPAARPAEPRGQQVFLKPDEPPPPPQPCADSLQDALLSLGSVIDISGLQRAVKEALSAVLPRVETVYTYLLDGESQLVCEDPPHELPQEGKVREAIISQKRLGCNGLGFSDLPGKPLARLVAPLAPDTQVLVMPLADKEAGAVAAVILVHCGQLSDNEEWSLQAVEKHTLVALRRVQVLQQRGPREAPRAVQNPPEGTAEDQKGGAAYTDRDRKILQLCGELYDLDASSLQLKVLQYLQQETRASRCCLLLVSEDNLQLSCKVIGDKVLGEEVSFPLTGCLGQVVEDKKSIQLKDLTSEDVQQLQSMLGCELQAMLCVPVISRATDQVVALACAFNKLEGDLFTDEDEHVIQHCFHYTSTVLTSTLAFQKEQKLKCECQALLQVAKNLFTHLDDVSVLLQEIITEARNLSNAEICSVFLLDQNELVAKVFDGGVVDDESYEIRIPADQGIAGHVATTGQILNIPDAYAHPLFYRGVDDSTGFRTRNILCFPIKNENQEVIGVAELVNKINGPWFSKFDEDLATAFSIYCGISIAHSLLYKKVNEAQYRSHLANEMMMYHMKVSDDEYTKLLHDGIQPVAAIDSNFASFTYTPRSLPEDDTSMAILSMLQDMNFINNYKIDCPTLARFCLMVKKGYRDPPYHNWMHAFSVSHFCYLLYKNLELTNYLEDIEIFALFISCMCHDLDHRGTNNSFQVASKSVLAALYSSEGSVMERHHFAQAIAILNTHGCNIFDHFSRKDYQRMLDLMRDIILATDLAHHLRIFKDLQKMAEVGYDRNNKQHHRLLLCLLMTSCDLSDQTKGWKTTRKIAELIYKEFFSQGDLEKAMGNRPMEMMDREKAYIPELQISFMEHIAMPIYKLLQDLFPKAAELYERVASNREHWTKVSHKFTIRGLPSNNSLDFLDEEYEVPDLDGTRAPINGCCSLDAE
Chain of High affinity cGMP-specific 3',5'-cyclic phosphodiesterase 9A (O76083 whole entry): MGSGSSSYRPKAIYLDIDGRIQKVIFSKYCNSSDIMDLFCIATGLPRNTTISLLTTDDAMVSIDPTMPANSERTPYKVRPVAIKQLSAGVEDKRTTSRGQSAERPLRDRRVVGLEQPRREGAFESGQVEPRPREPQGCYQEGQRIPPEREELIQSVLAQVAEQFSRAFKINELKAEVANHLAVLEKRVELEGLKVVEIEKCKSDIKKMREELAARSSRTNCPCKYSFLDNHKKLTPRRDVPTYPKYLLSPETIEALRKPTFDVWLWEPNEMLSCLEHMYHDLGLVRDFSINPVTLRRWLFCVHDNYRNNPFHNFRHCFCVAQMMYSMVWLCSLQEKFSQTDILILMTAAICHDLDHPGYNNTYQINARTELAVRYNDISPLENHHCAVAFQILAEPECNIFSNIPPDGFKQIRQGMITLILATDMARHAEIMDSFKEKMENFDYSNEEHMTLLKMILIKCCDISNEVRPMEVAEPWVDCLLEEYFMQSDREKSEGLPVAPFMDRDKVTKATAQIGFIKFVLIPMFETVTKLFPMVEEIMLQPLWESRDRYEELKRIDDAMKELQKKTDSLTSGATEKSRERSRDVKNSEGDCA
Chain of cAMP and cAMP-inhibited cGMP 3',5'-cyclic phosphodiesterase 10A (Q9Y233 whole entry): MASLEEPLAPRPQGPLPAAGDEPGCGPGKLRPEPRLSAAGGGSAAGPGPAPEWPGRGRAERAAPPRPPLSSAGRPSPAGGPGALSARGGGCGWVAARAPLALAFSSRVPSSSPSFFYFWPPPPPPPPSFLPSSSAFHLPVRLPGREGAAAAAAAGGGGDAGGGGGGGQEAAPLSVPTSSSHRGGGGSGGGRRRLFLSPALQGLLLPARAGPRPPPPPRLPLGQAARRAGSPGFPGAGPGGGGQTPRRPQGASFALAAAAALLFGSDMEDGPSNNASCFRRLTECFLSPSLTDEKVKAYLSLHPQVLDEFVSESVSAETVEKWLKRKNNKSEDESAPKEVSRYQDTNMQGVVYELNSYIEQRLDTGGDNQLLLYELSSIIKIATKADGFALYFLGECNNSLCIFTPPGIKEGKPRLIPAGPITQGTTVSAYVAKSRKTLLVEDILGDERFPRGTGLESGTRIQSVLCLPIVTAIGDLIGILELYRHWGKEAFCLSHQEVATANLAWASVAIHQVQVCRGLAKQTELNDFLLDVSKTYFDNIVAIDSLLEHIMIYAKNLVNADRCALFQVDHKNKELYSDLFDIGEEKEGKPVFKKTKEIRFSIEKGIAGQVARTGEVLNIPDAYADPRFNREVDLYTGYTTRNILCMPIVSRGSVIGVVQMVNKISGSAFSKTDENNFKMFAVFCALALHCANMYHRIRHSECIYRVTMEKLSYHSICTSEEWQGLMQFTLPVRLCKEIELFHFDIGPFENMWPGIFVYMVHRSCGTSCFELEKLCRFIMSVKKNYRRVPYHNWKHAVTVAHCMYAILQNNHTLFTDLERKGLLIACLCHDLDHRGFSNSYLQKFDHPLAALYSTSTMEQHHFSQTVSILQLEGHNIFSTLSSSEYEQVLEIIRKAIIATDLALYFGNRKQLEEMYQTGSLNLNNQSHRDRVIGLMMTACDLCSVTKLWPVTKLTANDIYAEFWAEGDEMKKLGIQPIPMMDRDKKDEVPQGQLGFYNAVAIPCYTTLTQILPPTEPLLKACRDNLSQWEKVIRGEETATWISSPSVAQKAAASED

Take `CC(C)CCn1c2c(c3c(O)cc(O)cc31)CCn1c-2nc2ccccc2c1=O`: the IC50 was 86 nM in test [1]; > 500000 nM in [2]; > 500000 nM on Phosphodiesterase 4; 43800 nM at Phosphodiesterase 6; > 500000 nM in [3]; 32100 nM in test [4]. For the same molecule, the Ratio IC50 is > 5000 in the test filed under Homo sapiens [5], > 5000 in the test listed under Homo sapiens [6], > 5000 in the test listed under Homo sapiens [7] and > 500 in the test listed under Homo sapiens [8]. Further, the result in the test with Mus musculus [9] and with Mus musculus [10] was Active.

`CCn1c2c(c3c(OC)cc(OC)cc31)CCn1c-2nc2ccccc2c1=O` returned a 50% inhibitory concentration (IC50) in test [1] of 47300 nM.

Turning to `CCCCn1c2c(c3ccccc31)CCn1c-2nc2ccccc2c1=O`, the IC50 in test [1] came out at 1120 nM.

`CC(C)CCn1c2c(c3ccccc31)CCn1c-2nc2ccccc2c1=O`: half-maximal inhibition in [1] (IC50) required 610 nM.

`CC(C)CCn1c2c(c3ccc(O)cc31)CCn1c-2nc2ccccc2c1=O` registered an IC50 in [1] of 110 nM.

Consider `COc1cc(OC)c2c3c([nH]c2c1)-c1nc2ccccc2c(=O)n1CC3`, for which the IC50 in test [1] was found to be 45600 nM.

For the molecule `CCCn1c2c(c3c(OC)cc(OC)cc31)CCn1c-2nc2ccccc2c1=O`, the concentration for half-maximal inhibition (IC50) in test [1] was found to be 19800 nM.

Consider `CCn1c2c(c3ccccc31)CCn1c-2nc2ccccc2c1=O`, for which, in test [1], half-maximal inhibition (IC50) required 1120 nM.

The molecule `CCn1c2c(c3ccc(O)cc31)CCn1c-2nc2ccccc2c1=O` registered an IC50 in test [1] of 970 nM.

In test [1], `CCn1c2c(c3ccc(OC)cc31)CCn1c-2nc2ccccc2c1=O` registered an IC50 of 11600 nM.

The molecule `CCCCn1c2c(c3ccc(O)cc31)CCn1c-2nc2ccccc2c1=O` showed a half-inhibitory concentration (IC50) in [1] of 630 nM.

Turning to `CCCCn1c2c(c3ccc(OC)cc31)CCn1c-2nc2ccccc2c1=O`, the 50% inhibitory concentration (IC50) in test [1] was determined as 9190 nM.

Consider `CCCCn1c2c(c3c(OC)cc(OC)cc31)CCn1c-2nc2ccccc2c1=O`, for which half-maximal inhibition in test [1] (IC50) required 20600 nM.

In turn, `CCCn1c2c(c3c(O)cc(O)cc31)CCn1c-2nc2ccccc2c1=O` had an IC50 in test [1] of 330 nM.

On to `O=c1c2ccccc2nc2n1CCc1c-2[nH]c2cc(O)cc(O)c12`, for which the IC50 in test [1] stood at 790 nM.

In turn, `COc1ccc2c3c([nH]c2c1)-c1nc2ccccc2c(=O)n1CC3` registered an IC50 in test [1] of 22100 nM.

Regarding `O=c1c2ccccc2nc2n1CCc1c-2[nH]c2ccccc12` [RUTAECARPINE], the IC50 in [1] worked out at 1230 nM.

Regarding `COc1cc(OC)c2c3c(n(CCC(C)C)c2c1)-c1nc2ccccc2c(=O)n1CC3`, the IC50 in test [1] turned out to be 18200 nM.

In test [1], `COc1ccc2c3c(n(CCC(C)C)c2c1)-c1nc2ccccc2c(=O)n1CC3` returned an IC50 of 6170 nM.

Regarding `CCCn1c2c(c3ccc(OC)cc31)CCn1c-2nc2ccccc2c1=O`, in [1], it took 12100 nM to reach half-maximal inhibition (IC50).

The molecule `O=c1c2ccccc2nc2n1CCc1c-2[nH]c2cc(O)ccc12` yielded a 50% inhibitory concentration (IC50) in test [1] of 1360 nM.

In turn, `CCCn1c2c(c3ccc(O)cc31)CCn1c-2nc2ccccc2c1=O` had a concentration for half-maximal inhibition (IC50) in test [1] of 1330 nM.

Consider `CCCc1nn(C)c2c(=O)[nH]c(-c3cc(S(=O)(=O)N4CCN(C)CC4)ccc3OCC)nc12`, for which, in the test filed under Homo sapiens [8], the Ratio IC50 worked out at 10.

For `COc1cc2c(cc1OC)C(=O)C(CC1CCN(Cc3ccccc3)CC1)C2` (stereo not drawn) [DONEPEZIL], the IC50 in test [1] is > 100000 nM.

Regarding `CCCCn1c2c(c3c(O)cc(O)cc31)CCn1c-2nc2ccccc2c1=O`, the 50% inhibitory concentration (IC50) in test [1] came out at 260 nM.

`CCn1c2c(c3c(O)cc(O)cc31)CCn1c-2nc2ccccc2c1=O`: the IC50 in [1] was 970 nM.

`CCCn1c2c(c3ccccc31)CCn1c-2nc2ccccc2c1=O` came in with a 50% inhibitory concentration (IC50) in test [1] of 1700 nM.

What is called IC50 is the midpoint of a concentration-inhibition curve. Lower therefore signals higher potency.
